Assay results: ChEMBL document CHEMBL1133537, “Chiral derivatives of 2-cyclohexylideneperhydro-4,7-methanoindenes, a novel class of nonsteroidal androgen receptor ligand: synthesis, X-ray analysis, and biological activity” (J Med Chem, 2000)

Experiments:
[1] = Eudismic ratio which is the ratio of potency of eutomer and distomer.
Androgen receptor [2] = target: T1, Androgen receptor (Rattus norvegicus, UniProt P15207)
T1 sequence (P15207 whole entry): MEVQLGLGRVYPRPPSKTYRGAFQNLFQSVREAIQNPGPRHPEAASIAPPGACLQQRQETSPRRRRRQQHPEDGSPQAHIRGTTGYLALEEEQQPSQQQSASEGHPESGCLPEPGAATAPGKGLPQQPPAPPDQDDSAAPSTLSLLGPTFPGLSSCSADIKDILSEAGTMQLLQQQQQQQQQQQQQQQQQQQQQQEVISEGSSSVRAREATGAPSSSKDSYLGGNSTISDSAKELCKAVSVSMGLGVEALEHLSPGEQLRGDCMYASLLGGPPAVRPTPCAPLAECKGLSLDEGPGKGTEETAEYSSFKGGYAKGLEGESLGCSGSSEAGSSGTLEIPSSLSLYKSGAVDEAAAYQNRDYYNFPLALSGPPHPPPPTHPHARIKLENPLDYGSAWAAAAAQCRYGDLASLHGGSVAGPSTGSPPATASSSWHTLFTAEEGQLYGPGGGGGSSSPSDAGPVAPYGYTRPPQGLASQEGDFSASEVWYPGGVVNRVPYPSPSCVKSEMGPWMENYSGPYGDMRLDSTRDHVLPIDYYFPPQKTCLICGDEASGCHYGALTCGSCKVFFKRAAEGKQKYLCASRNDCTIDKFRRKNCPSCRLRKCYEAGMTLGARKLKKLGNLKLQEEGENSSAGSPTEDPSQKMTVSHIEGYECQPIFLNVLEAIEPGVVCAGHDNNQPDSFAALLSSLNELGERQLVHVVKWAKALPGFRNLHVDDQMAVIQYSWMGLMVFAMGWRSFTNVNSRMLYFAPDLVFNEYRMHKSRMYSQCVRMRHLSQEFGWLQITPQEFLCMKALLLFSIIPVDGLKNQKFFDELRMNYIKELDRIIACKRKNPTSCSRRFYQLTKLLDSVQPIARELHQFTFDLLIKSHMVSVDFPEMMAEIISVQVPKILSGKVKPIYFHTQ
Description: Ability to inhibit binding of [3H]R-1881 to rat ventral prostate cytosolic androgen receptor was measured in a radioligand binding assay.

Androgen receptor [3] = target: T1, Androgen receptor; assay: […] binding affinity fot cytosolic androgen receptor

SMILES	Ratio [1]	IC50 (Androgen receptor [2]) [µM]	Ki (Androgen receptor [3]) [µM]
O=C1CCC(=C2C[C@@H]3[C@H]4CC(=O)[C@H](C4)[C@@H]3C2)CC1	2.3	33	–
C#C[C@]1(O)CC[C@H]2[C@@H]3CCC4Cc5nn(S(C)(=O)=O)cc5C[C@]4(C)[C@H]3CC[C@@]21C (stereo partly drawn)	–	–	2.2
O=C1CCC(=C2C[C@@H]3[C@H](C2)[C@@H]2C[C@H]3[C@@H](O)C2)CC1	2.7	3.9	–
O=C1CCC(=C2C[C@@H]3[C@@H]4C[C@H]([C@@H]3C2)[C@@](O)(C(F)(F)F)C4)CC1	2.6	41.2	–
C[C@@]1(O)C[C@H]2C[C@@H]1[C@@H]1CC(=C3CCC(=O)CC3)C[C@H]21	–	27.4	–
C#C[C@]1(O)C[C@@H]2C[C@H]1[C@H]1CC(=C3CCC(=O)CC3)C[C@@H]21	–	13.5	–
C#C[C@@]1(O)C[C@H]2C[C@@H]1[C@@H]1CC(=C3CCC(=O)CC3)C[C@H]21	4.2	57	–
O=C1CCC(=C2C[C@H]3[C@H]4C[C@@H]([C@H]3C2)[C@](O)(C(F)(F)F)C4)CC1	–	15.6	–
O=C1CCC(=C2C[C@H]3[C@@H](C2)[C@H]2C[C@@H]3[C@H](O)C2)CC1	–	10.4	–
O=C1CCC(=C2C[C@@H]3[C@H](C2)[C@@H]2C[C@H]3[C@H](O)C2)CC1	15.5	35.9	0.45
C=C[C@@]1(O)C[C@H]2C[C@@H]1[C@@H]1CC(=C3CCC(=O)CC3)C[C@H]21	–	62.5	–
O=C1CCC(=C2C[C@H]3[C@@H]4CC(=O)[C@@H](C4)[C@H]3C2)CC1	–	14.2	–
